Assay results as given in ChEMBL document CHEMBL4265965, “Dichloroacetophenones targeting at pyruvate dehydrogenase kinase 1 with improved selectivity and antiproliferative activity: Synthesis and structure-activity relationships” (Bioorg Med Chem Lett, 2018).
pIC50, pKd: −log10 of the molar value. Calls of active or inactive are those of the source. No cut-off for these calls is given here.

Tests used:
[1] = target: T1, [Pyruvate dehydrogenase (acetyl-transferring)] kinase isozyme 1, mitochondrial (Homo sapiens, UniProt Q15118); experiment: Inhibition of recombinant human N-terminal His6/Sumo-tagged PDK1 (29 to 436 residues) expressed in Escherichia coli BL21 at 1 uM by kinase-glo luminescence assay relative to control
T1 sequence (Q15118 whole entry, the tested form may be a part): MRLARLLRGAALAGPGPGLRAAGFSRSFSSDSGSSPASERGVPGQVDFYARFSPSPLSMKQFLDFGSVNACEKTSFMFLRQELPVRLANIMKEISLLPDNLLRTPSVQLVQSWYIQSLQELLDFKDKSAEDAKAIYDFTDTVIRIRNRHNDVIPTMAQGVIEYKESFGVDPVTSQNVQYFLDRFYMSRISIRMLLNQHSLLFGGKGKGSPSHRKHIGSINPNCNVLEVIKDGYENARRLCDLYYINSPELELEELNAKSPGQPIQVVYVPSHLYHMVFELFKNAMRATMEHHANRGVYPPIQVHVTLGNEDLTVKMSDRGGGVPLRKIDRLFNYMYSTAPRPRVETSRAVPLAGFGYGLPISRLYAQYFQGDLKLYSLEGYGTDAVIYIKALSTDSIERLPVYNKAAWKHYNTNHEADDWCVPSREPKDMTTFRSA

NCI-H1975 [2] = experiment: Antiproliferative activity against human NCI-H1975 cells assessed as inhibition of cell proliferation after 72 hrs by MTT assay; format: functional, cell-based; conditions: NCI-H1975, 72 h
[3] = target: T1, [Pyruvate dehydrogenase (acetyl-transferring)] kinase isozyme 1, mitochondrial; experiment: Inhibition of PDK1 in human NCI-H1975 cells assessed as switch of pyruvate metabolism from lactate production to oxidative phosphorylation by measuring decrease in extracellular acidification rate at 10 uM pretreated for 4 hrs followed by 2DG addition for 1 hr measured for 16 mins; format: cell-based
NCI-H1650 [4] = experiment: Antiproliferative activity against human NCI-H1650 cells assessed as inhibition of cell proliferation at 12 uM after 72 hrs by MTT assay relative to control; format: functional; conditions: NCI-H1650, 72 h
NCI-H1975 [5] = experiment: Antiproliferative activity against human NCI-H1975 cells assessed as inhibition of cell proliferation at 6 uM after 72 hrs by MTT assay relative to control; format: functional; conditions: NCI-H1975, 72 h
[6] = target: T1, [Pyruvate dehydrogenase (acetyl-transferring)] kinase isozyme 1, mitochondrial; experiment: Inhibition of PDK1 in human NCI-H1975 cells assessed as switch of pyruvate metabolism from lactate production to oxidative phosphorylation by measuring increase in basal oxygen consumption rate at 10 uM incubated for 4 hrs followed by oligomycin addition for 1 hr measured for 16 mins; format: cell-based
[7] = target: T1, [Pyruvate dehydrogenase (acetyl-transferring)] kinase isozyme 1, mitochondrial; experiment: Inhibition of PDK1 in human NCI-H1975 cells assessed as switch of pyruvate metabolism from lactate production to oxidative phosphorylation by measuring increase in basal oxygen consumption rate at 10 uM incubated for 4 hrs measured for 16 mins; format: cell-based
NCI-H1975 [8] = experiment: Antiproliferative activity against human NCI-H1975 cells assessed as inhibition of cell proliferation at 12 uM after 72 hrs by MTT assay relative to control; format: functional; conditions: NCI-H1975, 72 h
A549 [9] = experiment: Antiproliferative activity against human A549 cells assessed as inhibition of cell proliferation at 12 uM after 72 hrs by MTT assay relative to control; format: functional; conditions: A549, 72 h
[10] = target: T1, [Pyruvate dehydrogenase (acetyl-transferring)] kinase isozyme 1, mitochondrial; experiment: Binding affinity to recombinant human N-terminal His6/Sumo-tagged PDK1 (29 to 436 residues) expressed in Escherichia coli BL21
[11] = target: T1, [Pyruvate dehydrogenase (acetyl-transferring)] kinase isozyme 1, mitochondrial; experiment: Inhibition of PDK1 in human NCI-H1975 cells assessed as switch of pyruvate metabolism from lactate production to oxidative phosphorylation by measuring decrease in extracellular acidification rate at 10 uM pretreated for 4 hrs followed by oligomycin addition for 1 hr measured for 16 mins; format: cell-based
[12] = target: T1, [Pyruvate dehydrogenase (acetyl-transferring)] kinase isozyme 1, mitochondrial; experiment: Inhibition of PDK1 in human NCI-H1975 cells assessed as switch of pyruvate metabolism from lactate production to oxidative phosphorylation by measuring decrease in extracellular acidification rate at 10 uM pretreated for 4 hrs followed by glucose addition for 1 hr measured for 16 mins; format: cell-based
A549 [13] = experiment: Antiproliferative activity against human A549 cells assessed as inhibition of cell proliferation at 2 uM after 72 hrs by MTT assay relative to control; format: functional; conditions: A549, 72 h
NCI-H1650 [14] = experiment: Antiproliferative activity against human NCI-H1650 cells assessed as inhibition of cell proliferation at 6 uM after 72 hrs by MTT assay relative to control; format: functional; conditions: NCI-H1650, 72 h
NCI-H1650 [15] = experiment: Antiproliferative activity against human NCI-H1650 cells assessed as inhibition of cell proliferation at 2 uM after 72 hrs by MTT assay relative to control; format: functional; conditions: NCI-H1650, 72 h
A549 [16] = experiment: Antiproliferative activity against human A549 cells assessed as inhibition of cell proliferation at 6 uM after 72 hrs by MTT assay relative to control; format: functional; conditions: A549, 72 h
[17] = Inhibition of ERK phosphorylation in human NCI-H1975 cells at 10 uM after 24 hrs by Western blot analysis; format: cell-based; conditions: nci-h1975, 24 h
[18] = target: T1, [Pyruvate dehydrogenase (acetyl-transferring)] kinase isozyme 1, mitochondrial; experiment: Inhibition of PDK1 in human NCI-H1975 cells assessed as switch of pyruvate metabolism from lactate production to oxidative phosphorylation by measuring increase in basal oxygen consumption rate at 10 uM incubated for 4 hrs followed by FCCP addition for 1 hr measured for 16 mins; format: cell-based
[19] = target: RAC-alpha serine/threonine-protein kinase (Homo sapiens, UniProt P31749); experiment: Inhibition of AKT phosphorylation in human NCI-H1975 cells at 10 uM after 24 hrs by Western blot analysis; format: cell-based; conditions: nci-h1975, 24 h
Sequence of RAC-alpha serine/threonine-protein kinase (P31749 whole entry): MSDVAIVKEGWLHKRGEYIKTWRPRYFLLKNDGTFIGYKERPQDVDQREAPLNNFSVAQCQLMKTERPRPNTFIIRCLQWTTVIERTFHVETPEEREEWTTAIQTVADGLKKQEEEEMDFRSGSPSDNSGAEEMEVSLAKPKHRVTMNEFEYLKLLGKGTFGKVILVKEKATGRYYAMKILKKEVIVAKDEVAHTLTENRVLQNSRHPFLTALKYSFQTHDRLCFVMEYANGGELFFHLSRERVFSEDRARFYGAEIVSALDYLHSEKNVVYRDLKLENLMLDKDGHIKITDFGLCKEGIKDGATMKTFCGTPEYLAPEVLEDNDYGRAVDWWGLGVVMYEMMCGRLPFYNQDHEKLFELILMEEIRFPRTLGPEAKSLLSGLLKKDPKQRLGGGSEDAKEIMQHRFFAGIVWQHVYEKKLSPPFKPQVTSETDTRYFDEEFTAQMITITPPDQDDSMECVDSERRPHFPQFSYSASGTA

[20] = target: T1, [Pyruvate dehydrogenase (acetyl-transferring)] kinase isozyme 1, mitochondrial; experiment: Inhibition of PDK1 in human NCI-H1975 cells assessed as switch of pyruvate metabolism from lactate production to oxidative phosphorylation by measuring increase in basal oxygen consumption rate at 10 uM incubated for 4 hrs followed by antimycinA addition for 1 hr measured for 16 mins; format: cell-based
[21] = target: Epidermal growth factor receptor (Homo sapiens, UniProt P00533); experiment: Inhibition of EGFR phosphorylation in human NCI-H1975 cells at 10 uM after 24 hrs by Western blot analysis; format: cell-based; conditions: nci-h1975, 24 h
Sequence of Epidermal growth factor receptor (P00533 whole entry): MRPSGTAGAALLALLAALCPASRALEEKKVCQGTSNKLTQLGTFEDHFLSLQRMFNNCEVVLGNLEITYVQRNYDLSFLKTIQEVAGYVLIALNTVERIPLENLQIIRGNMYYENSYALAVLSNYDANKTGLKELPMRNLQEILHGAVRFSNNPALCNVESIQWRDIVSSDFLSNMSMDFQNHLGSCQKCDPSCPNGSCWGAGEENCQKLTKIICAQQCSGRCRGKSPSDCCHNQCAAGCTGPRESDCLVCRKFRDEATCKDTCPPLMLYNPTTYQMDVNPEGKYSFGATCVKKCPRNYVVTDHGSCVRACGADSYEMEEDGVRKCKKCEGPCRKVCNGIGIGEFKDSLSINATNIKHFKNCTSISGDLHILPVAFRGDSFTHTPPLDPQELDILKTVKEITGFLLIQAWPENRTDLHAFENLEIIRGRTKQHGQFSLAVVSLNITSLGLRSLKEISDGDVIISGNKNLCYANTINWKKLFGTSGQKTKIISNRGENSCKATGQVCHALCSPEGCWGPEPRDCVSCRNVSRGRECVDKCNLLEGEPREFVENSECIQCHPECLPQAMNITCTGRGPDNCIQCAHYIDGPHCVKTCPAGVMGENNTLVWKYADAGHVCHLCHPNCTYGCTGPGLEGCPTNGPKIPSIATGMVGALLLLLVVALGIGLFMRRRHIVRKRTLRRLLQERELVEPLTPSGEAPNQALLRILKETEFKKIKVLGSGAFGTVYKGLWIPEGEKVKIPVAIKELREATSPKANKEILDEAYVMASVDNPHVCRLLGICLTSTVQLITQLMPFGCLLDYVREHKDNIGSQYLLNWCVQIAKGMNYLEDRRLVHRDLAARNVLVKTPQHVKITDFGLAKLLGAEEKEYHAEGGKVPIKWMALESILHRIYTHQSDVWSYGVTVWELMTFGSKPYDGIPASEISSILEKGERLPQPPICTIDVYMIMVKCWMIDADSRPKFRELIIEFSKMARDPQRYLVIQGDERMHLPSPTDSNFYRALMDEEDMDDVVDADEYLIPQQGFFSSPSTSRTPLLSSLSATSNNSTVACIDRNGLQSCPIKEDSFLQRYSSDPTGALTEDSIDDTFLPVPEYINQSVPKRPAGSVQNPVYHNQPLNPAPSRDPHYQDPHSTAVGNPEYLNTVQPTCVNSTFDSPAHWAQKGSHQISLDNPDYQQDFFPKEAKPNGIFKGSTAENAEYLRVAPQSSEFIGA

NCI-H1975 [22] = experiment: Antiproliferative activity against human NCI-H1975 cells assessed as inhibition of cell proliferation at 2 uM after 72 hrs by MTT assay relative to control; format: functional; conditions: NCI-H1975, 72 h
[23] = target: T1, [Pyruvate dehydrogenase (acetyl-transferring)] kinase isozyme 1, mitochondrial; experiment: Inhibition of PDK1 in human NCI-H1975 cells assessed as switch of pyruvate metabolism from lactate production to oxidative phosphorylation by measuring increase in basal oxygen consumption rate at 2.5 to 5 uM incubated for 4 hrs measured for 16 mins; format: cell-based
[24] = target: T1, [Pyruvate dehydrogenase (acetyl-transferring)] kinase isozyme 1, mitochondrial; experiment: Inhibition of PDK1 in human NCI-H1975 cells assessed as switch of pyruvate metabolism from lactate production to oxidative phosphorylation by measuring increase in maximum respiration at 5 uM incubated for 4 hrs followed by FCCP addition for 1 hr measured for 16 mins; format: cell-based
[25] = target: T1, [Pyruvate dehydrogenase (acetyl-transferring)] kinase isozyme 1, mitochondrial; experiment: Inhibition of PDK1 in human NCI-H1975 cells assessed as switch of pyruvate metabolism from lactate production to oxidative phosphorylation by measuring increase in ATP production at 5 uM incubated for 4 hrs followed by oligomycin addition for 1 hr measured for 16 mins; format: cell-based
[26] = target: T1, [Pyruvate dehydrogenase (acetyl-transferring)] kinase isozyme 1, mitochondrial; experiment: Inhibition of PDK1 in human NCI-H1975 cells assessed as switch of pyruvate metabolism from lactate production to oxidative phosphorylation by measuring increase in proton leak at 5 uM incubated for 4 hrs followed by oligomycin addition for 1 hr measured for 16 mins; format: cell-based
Sus scrofa [27] = organism: Sus scrofa; experiment: Inhibition of porcine PDK1 assessed as activation of pyruvate dehydrogenase complex at 1 uM measured after 3 mins
[28] = target: T1, [Pyruvate dehydrogenase (acetyl-transferring)] kinase isozyme 1, mitochondrial; experiment: Inhibition of PDK1 in human NCI-H1975 cells assessed as reduction in pyruvate dehydrogenase phosphorylation at 10 uM after 24 hrs by Western blot analysis; format: cell-based
[29] = target: T1, [Pyruvate dehydrogenase (acetyl-transferring)] kinase isozyme 1, mitochondrial; experiment: Inhibition of PDK1 in human NCI-H1975 cells assessed as switch of pyruvate metabolism from lactate production to oxidative phosphorylation by measuring increase in basal oxygen consumption rate at 20 uM incubated for 4 hrs followed by antimycinA addition for 1 hr measured for 16 mins; format: cell-based
[30] = target: T1, [Pyruvate dehydrogenase (acetyl-transferring)] kinase isozyme 1, mitochondrial; experiment: Inhibition of PDK1 in human NCI-H1975 cells assessed as switch of pyruvate metabolism from lactate production to oxidative phosphorylation by measuring decrease in extracellular acidification rate at 20 uM pretreated for 4 hrs followed by oligomycin addition for 1 hr measured for 16 mins; format: cell-based
[31] = target: T1, [Pyruvate dehydrogenase (acetyl-transferring)] kinase isozyme 1, mitochondrial; experiment: Inhibition of PDK1 in human NCI-H1975 cells assessed as switch of pyruvate metabolism from lactate production to oxidative phosphorylation by measuring increase in basal oxygen consumption rate at 20 uM incubated for 4 hrs measured for 16 mins; format: cell-based
Sus scrofa [32] = organism: Sus scrofa; experiment: Inhibition of porcine PDK1 assessed as activation of pyruvate dehydrogenase complex at 80 uM measured after 3 mins relative to control
[33] = target: T1, [Pyruvate dehydrogenase (acetyl-transferring)] kinase isozyme 1, mitochondrial; experiment: Inhibition of PDK1 in human NCI-H1975 cells assessed as switch of pyruvate metabolism from lactate production to oxidative phosphorylation by measuring decrease in extracellular acidification rate at 20 uM pretreated for 4 hrs followed by glucose addition for 1 hr measured for 16 mins; format: cell-based
[34] = target: T1, [Pyruvate dehydrogenase (acetyl-transferring)] kinase isozyme 1, mitochondrial; experiment: Inhibition of PDK1 in human NCI-H1975 cells assessed as switch of pyruvate metabolism from lactate production to oxidative phosphorylation by measuring decrease in extracellular acidification rate at 20 uM pretreated for 4 hrs followed by 2DG addition for 1 hr measured for 16 mins; format: cell-based
[35] = target: T1, [Pyruvate dehydrogenase (acetyl-transferring)] kinase isozyme 1, mitochondrial; experiment: Inhibition of PDK1 in human NCI-H1975 cells assessed as switch of pyruvate metabolism from lactate production to oxidative phosphorylation by measuring increase in basal oxygen consumption rate at 20 uM incubated for 4 hrs followed by FCCP addition for 1 hr measured for 16 mins; format: cell-based
[36] = target: T1, [Pyruvate dehydrogenase (acetyl-transferring)] kinase isozyme 1, mitochondrial; experiment: Inhibition of PDK1 in human NCI-H1975 cells assessed as switch of pyruvate metabolism from lactate production to oxidative phosphorylation by measuring increase in basal oxygen consumption rate at 20 uM incubated for 4 hrs followed by oligomycin addition for 1 hr measured for 16 mins; format: cell-based

Structure (SMILES)	inhibition [1]	pIC50 (NCI-H1975 [2])	inhibition [3]	inhibition at 12 µM (NCI-H1650 [4])	inhibition at 6 µM (NCI-H1975 [5])	inhibition [6]	inhibition [7]	inhibition at 12 µM (NCI-H1975 [8])	inhibition at 12 µM (A549 [9])	pKd [10]	inhibition [11]	inhibition [12]	inhibition at 2 µM (A549 [13])	inhibition at 6 µM (NCI-H1650 [14])	inhibition at 2 µM (NCI-H1650 [15])	inhibition at 6 µM (A549 [16])	inhibition (INH) [17]	inhibition (INH) [19]	inhibition (INH) [21]	inhibition at 2 µM (NCI-H1975 [22])	also measured
CC(C)c1ccc(C(=O)C(Cl)Cl)cc1[N+](=O)[O-]	75.1%	5.80	Active	100%	95%	Active	Active	99.5%	96.5%	6.01	Active	Active	22.7%	90%	36.4%	75.9%	Not Active	Not Active	Not Active	59.8%	inhibition [18]: Active; inhibition [20]: inactive
CC(C)Oc1ccc(C(=O)C(Cl)Cl)cc1[N+](=O)[O-]	84.3%	5.90	Active	99.5%	99.1%	Active	Active	99.5%	99.7%	6.24	Active	Active	27.7%	95.9%	48.6%	92.5%	Not Active	Not Active	Not Active	65.5%	inhibition [23]: Active; inhibition [24]: Active; inhibition [18]: Active; inhibition [25]: Active; inhibition [26]: Active; inhibition (Sus scrofa [27]): Active; inhibition [20]: inactive
O=C(c1ccccc1)C(Cl)Cl	inactive	5.10	–	47.9%	54.3%	–	–	83.7%	54.4%	–	–	–	9.2%	31.3%	15.3%	28.5%	Active	Active	Active	13.2%	inhibition [28]: Active; inhibition [29]: inactive; inhibition [30]: inactive; inhibition [31]: Active; inhibition (Sus scrofa [32]): 36.6%; inhibition [33]: inactive; inhibition (Sus scrofa [27]): inactive; inhibition [34]: Active; inhibition [35]: Active; inhibition [36]: Active
COc1ccc(C(=O)C(Cl)Cl)cc1Cl	47.1%	5.70	–	98.7%	95.8%	–	–	99.4%	88.4%	–	–	–	17%	78.5%	36.5%	56.7%	–	–	–	51.7%	inhibition [28]: Active
CCc1ccc(C(=O)C(Cl)Cl)cc1[N+](=O)[O-]	66.6%	5.76	Active	100%	93.2%	Active	Active	98.9%	93.7%	5.89	Active	Active	20.2%	79.3%	35.6%	71.4%	Not Active	Not Active	Not Active	57%	inhibition [18]: Active; inhibition [20]: inactive
